Data from patent US8815891B2, “Tricyclic derivative or pharmaceutically acceptable salts thereof, preparation method thereof, and pharmaceutical composition containing the same” (Je Il Pharmaceutical Co., Ltd., priority 2008, dated 2014).
Where a name gives a salt, the structure may show the parent alone. Read-outs that look alike come from different tables or passages of the source.

Assays:
PARP-1 enzyme [1] = target: PARP-1 enzyme (Cricetulus griseus (Chinese hamster) (Cricetulus barabensis griseus), UniProt Q9R152); experiment: Intracellular PARP inhibitory activity (NAD(P)H released by MMS-treated CHO-K1 cells); assay type: cell-based
Protocol: In order to verify the ability of the compounds of the present invention to inhibit the PARP-1 enzyme activity, the amount of NAD(P)H accumulated on cell culture medium was measured.
The Chinese hamster ovary cells (CHO-K1) were cultured in RPMI1640 culture medium containing 10% fetal bovine serum (FBS). The cultured CHO-K1 cells were seeded into 96 well plate by 2.9×10^3 cells/well, and cultured for 16 hours under culture condition of 37° C., 5% CO2. After the culture, the cells were treated with the compounds of the Examples at varying concentrations, and cultured at 37° C. for 2 hours. […] The amount of […] released to the culture medium 3, 4, 5 hours after the treatment with MMS was quantified at 450 nm using Wallac EnVision™ (PerkinElmer Oy, Turku, Finland). The transference numbers of the compounds at varying concentrations according to the present invention are the average values obtained from four wells, and the results were calculated using regression analysis.
The Chinese hamster ovary cells (CHO-K1) were treated with the compounds at varying concentration according to the present invention, and the amount of NAD(P)H released into the culture medium 4 hours after the MMS treatment was quantified.

PARP-1 enzyme [2] = target: PARP-1 enzyme (Homo sapiens (Human), UniProt P09874); experiment: Poly(ADP-ribose)polymerase [PARP-1] enzyme inhibitory activity (Trevigen PARP Assay kit); assay type: biochemical; conditions: read-out: PARP-1 Inhibitory activity IC50
Protocol: The activity of the compounds according to the present invention to inhibit the PARP-1 enzyme was examined using a PARP Assay kit (4671-096-K) purchased from Trevigen. The assay was performed following a modified previously reported method by Lee et al [Methods Find, Exp. Clin. Pharmacol., 27, 617-622, 2005].
Histone was coated on 384-well plate, which is a small volume PS plate (784101) of Greiner Bio-One, and left at 25° C. for 2 hours. After that, the plate was rinsed four times with PBS (7.5 mM Na2HPO4, 2.5 mM NaH2PO4, 145 mM NaCl, pH 7.4), and in order to prevent non-specific reaction, the Strep-diluent (provided from kit of Trevigen) was added and left at 25° C. for one hour. After one hour, the plate was again rinsed with PBS four times, and the compounds of the Examples in various concentrations were put into reactant containing PARP-1 enzyme (0.12 unit/well), 2×PARP cocktail (1.95 mM NAD^+, 50 uM biotinylated NAD^+, and activated DNA in 50 mM Tris pH 8.0, 25 mM MgCl2) and allowed to react at 25° C. for 30 minutes. After 30 minutes, each well was rinsed with PBS four times, and in order to measure the amount of rybosylation by the PARP enzyme, strepavidin-linked peroxidase (Strep-HRP, 1:1000 diluted) was added and allowed to react at 37° C. for 30 minutes. The plate was rinsed with PBS four times, and TACS-Sapphire substrate was put and allowed to react at 25° C. for 10 minutes so that color reaction occurred. Finally, the reaction was terminated by the addition of 0.2 N HCl. The amount of histone ribosylation formed by PARP-1 enzyme was quantified at 450 nm using Wallac EnVision™ (PerkinElmer Oy, Turku, Finland).

[3] = PARP-1 enzyme, histone ribosylation, 450 nm

Chain of PARP-1 enzyme (Homo sapiens (Human), UniProt P09874) (P09874 whole entry): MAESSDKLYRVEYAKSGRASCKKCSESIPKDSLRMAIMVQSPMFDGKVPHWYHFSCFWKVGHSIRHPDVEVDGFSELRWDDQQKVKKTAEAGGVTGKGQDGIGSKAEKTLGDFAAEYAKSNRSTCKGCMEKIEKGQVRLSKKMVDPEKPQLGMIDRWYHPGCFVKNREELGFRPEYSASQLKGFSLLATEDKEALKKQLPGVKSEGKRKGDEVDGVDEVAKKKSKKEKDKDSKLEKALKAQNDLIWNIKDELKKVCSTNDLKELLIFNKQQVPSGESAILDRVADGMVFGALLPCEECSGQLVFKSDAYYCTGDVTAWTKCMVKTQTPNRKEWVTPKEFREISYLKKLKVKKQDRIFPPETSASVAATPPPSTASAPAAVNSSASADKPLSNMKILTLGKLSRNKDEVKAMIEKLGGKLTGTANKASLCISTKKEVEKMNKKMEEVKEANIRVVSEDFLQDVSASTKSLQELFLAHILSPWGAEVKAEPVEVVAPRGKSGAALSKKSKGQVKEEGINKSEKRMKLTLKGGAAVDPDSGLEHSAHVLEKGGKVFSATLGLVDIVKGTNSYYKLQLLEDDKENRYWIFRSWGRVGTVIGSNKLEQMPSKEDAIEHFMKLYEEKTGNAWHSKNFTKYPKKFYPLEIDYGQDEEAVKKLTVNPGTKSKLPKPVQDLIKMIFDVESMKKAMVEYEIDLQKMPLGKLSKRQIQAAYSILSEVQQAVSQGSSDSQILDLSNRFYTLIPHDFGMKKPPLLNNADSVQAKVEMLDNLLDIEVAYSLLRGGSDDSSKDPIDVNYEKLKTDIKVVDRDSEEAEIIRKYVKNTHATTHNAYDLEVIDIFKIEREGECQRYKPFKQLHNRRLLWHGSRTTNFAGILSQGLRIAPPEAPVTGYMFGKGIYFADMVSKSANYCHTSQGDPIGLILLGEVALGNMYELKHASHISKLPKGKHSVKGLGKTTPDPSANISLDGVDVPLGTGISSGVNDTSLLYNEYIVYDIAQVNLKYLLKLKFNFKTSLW
Chain of PARP-1 enzyme (Cricetulus griseus (Chinese hamster) (Cricetulus barabensis griseus), UniProt Q9R152) (Q9R152 whole entry): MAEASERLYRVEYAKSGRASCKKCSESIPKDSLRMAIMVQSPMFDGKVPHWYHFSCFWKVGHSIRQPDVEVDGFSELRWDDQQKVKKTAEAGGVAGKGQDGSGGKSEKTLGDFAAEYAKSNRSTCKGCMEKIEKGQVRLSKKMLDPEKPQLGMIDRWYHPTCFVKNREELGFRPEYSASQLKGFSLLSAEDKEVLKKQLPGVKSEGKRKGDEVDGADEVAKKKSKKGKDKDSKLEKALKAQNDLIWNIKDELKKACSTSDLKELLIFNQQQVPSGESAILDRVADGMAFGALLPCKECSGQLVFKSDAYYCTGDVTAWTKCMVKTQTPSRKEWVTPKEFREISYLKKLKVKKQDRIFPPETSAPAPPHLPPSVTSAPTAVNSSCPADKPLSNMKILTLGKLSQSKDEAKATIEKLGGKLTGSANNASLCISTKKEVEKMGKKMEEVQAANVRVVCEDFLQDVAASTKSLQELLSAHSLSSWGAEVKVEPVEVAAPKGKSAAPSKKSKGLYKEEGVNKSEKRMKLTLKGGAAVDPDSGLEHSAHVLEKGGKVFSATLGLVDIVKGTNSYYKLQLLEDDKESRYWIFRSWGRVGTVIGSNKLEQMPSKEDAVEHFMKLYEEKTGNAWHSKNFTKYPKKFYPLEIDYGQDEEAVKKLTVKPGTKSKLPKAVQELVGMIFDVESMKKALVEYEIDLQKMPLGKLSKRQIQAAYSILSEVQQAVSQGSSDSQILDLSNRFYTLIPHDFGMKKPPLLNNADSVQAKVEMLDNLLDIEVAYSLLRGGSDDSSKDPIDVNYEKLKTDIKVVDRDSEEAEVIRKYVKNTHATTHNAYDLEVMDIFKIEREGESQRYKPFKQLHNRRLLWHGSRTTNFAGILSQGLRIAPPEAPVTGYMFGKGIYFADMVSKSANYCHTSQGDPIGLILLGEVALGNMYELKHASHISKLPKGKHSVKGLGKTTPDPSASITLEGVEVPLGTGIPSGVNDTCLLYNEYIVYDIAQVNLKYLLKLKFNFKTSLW

SMILES	IC50 (PARP-1 enzyme [1]) [nM]	IC50 (PARP-1 enzyme [2]; [3]) [nM]	IC50 (PARP-1 enzyme [2]) [nM]	IC50 (PARP-1 enzyme [1]; CHO-K1 cells, NAD(P)H released 4 hours after MMS treatment, read-out: PARP-1 Inhibitory activity IC50) [nM]	IC50 (PARP-1 enzyme [2]; dihydrochloride) [nM]
O=c1[nH]c2ccc(OCCN3CCCCC3)cc2c2c1CCCN2 [Example 17, 9-[2-(Piperidine-1yl)ethoxy]-1,2,3,4-tetrahydrobenzo[h][1,6]naphthyridine-5(6H)-one dihydrochloride]	1630	< 1000	460	–	–
COCCOc1ccc2[nH]c(=O)c3c(c2c1)NCCC3 [Example 18, 9-(2-Methoxyethoxy)-1,2,3,4-tetrahydrobenzo[h][1,6]naphthyridine-5(6H)-one hydrochloride]	3710	1520	–	–	–
CCOc1ccc2[nH]c(=O)c3c(c2c1)NCCC3 [Example 20, 9-Ethoxy-1,2,3,4-tetrahydrobenzo[h][1,6]naphthyridine-5(6H)-one hydrochloride]	1300	1540	–	–	–
CN(C)CCc1ccc2c3c(c(=O)[nH]c2c1)CCCN3 [Example 32, 8-[2-(Dimethylamino)ethyl]-1,2,3,4-tetrahydrobenzo[h][1,6]naphthyridine-5(6H)-one dihydrochloride]	3160	< 1000	230	–	–
CN(C)c1ccc2c3c(c(=O)[nH]c2c1)CCCN3 [Example 37, 8-(Dimethylamino)-1,2,3,4-tetrahydrobenzo[h][1,6]naphthyridine-5(6H)-one hydrochloride]	–	> 4000	–	4860	–
CC(c1ccc2c3c(c(=O)[nH]c2c1)CCCN3)N(C)C (stereo not drawn) [Example 38, 8-[1-(Dimethylamino)ethyl]-1,2,3,4-tetrahydrobenzo[h][1,6]naphthyridine-5(6H)-one dihydrochloride]	140	< 1000	50	–	–
CN(C)Cc1ccc2c3c(c(=O)[nH]c2c1)CCCN3 [Example 41, 8-[(Dimethylamino)methyl]-1,2,3,4-tetrahydrobenzo[h][1,6]naphthyridine-5(6H)-one dihydrochloride]	50	–	40	–	–
CCNCc1ccc2c3c(c(=O)[nH]c2c1)CCCN3 [Example 43, 8-[(Ethylamino)methyl]-1,2,3,4-tetrahydrobenzo[h][1,6]naphthyridine-5(6H)-one dihydrochloride]	1770	–	160	–	–
O=c1[nH]c2cc(CN3CCCC3)ccc2c2c1CCCN2 [Example 44, 8-(Pyrrolidine-1-ylmethyl)-1,2,3,4-tetrahydrobenzo[h][1,6]naphthyridine-5(6H)-one dihydrochloride]	340	–	–	–	60
CCN(C)Cc1ccc2c3c(c(=O)[nH]c2c1)CCCN3 [Example 47, 8-{[Ethyl(methyl)amino]methyl}-1,2,3,4-tetrahydrobenzo[h][1,6]naphthyridine-5(6H)-one dihydrochloride]	250	–	70	–	–
O=c1[nH]c2cc(CN3CCCCC3)ccc2c2c1CCCN2 [Example 48, 8-(Piperidine-1-ylmethyl)-1,2,3,4-tetrahydrobenzo[h][1,6]naphthyridine-5(6H)-one dihydrochloride]	430	–	130	–	–
CN(CCO)Cc1ccc2c3c(c(=O)[nH]c2c1)CCCN3 [Example 53, 8-{[(2-Hydroxyethyl)(methyl)amino]methyl}-1,2,3,4-tetrahydrobenzo[h][1,6]naphthyridine-5(6H)-one dihydrochloride]	290	–	50	–	–
CCCN(C)Cc1ccc2c3c(c(=O)[nH]c2c1)CCCN3 [Example 56, 8-[(Methyl(propyl)amino)methyl]-1,2,3,4-tetrahydrobenzo[h][1,6]naphthyridine-5(6H)-one dihydrochloride]	470	–	180	–	–
CN(C)Cc1ccc2c3c(c(=O)[nH]c2c1)CCCN3C [Example 66, 8-[(Dimethylamino)methyl]-1-methyl-1,2,3,4-tetrahydrobenzo[h][1,6]naphthyridine-5(6H)-one dihydrochloride]	320	< 1000	90	–	–
CNCc1cc(OC)c2c3c(c(=O)[nH]c2c1)CCCN3 [Example 73, 10-Methoxy-8-[(methylamino)methyl]-1,2,3,4-tetrahydrobenzo[h][1,6]naphthyridine-5(6H)-one dihydrochloride]	1390	–	100	–	–
COc1cc(CNC(C)(C)C)cc2[nH]c(=O)c3c(c12)NCCC3 [Example 87, 8-[(t-Butylamino)methyl]-10-methoxy-1,2,3,4-tetrahydrobenzo[h][1,6]naphthyridine-5(6H)-one dihydrochloride]	820	–	610	–	–
COc1cc(CN(C)N2CCOCC2)cc2[nH]c(=O)c3c(c12)NCCC3 [Example 97, 10-Methoxy-8-{[methyl(morpholino)amino]methyl}-1,2,3,4-tetrahydrobenzo[h][1,6]naphthyridine-5(6H)-one trihydrochloride]	–	–	900	–	–
CCOc1cc(CN(C)C)cc2[nH]c(=O)c3c(c12)NCCC3 [Example 100, 8-[(Dimethylamino)methyl]-10-etoxy-1,2,3,4-tetrahydrobenzo[h][1,6]naphthyridine-5(6H)-one dihydrochloride]	60	–	–	–	–
CCOc1cc(CN2CCCCC2)cc2[nH]c(=O)c3c(c12)NCCC3 [Example 102, 10-Ethoxy-8-(piperidine-1-ylmethyl)-1,2,3,4-tetrahydrobenzo[h][1,6]naphthyridine-5(6H)-one dihydrochloride]	–	–	180	–	–
CCOc1cc(CNC)cc2[nH]c(=O)c3c(c12)NCCC3 [Example 103, 10-Etoxy-8-[(methylamino)methyl]-1,2,3,4-tetrahydrobenzo[h][1,6]naphthyridine-5(6H)-one dihydrochloride]	820	120	–	–	–
CCNCc1cc(OCC)c2c3c(c(=O)[nH]c2c1)CCCN3 [Example 104, 10-Etoxy-8-[(ethylamino)methyl]-1,2,3,4-tetrahydrobenzo[h][1,6]naphthyridine-5(6H)-one dihydrochloride]	1650	60	–	–	–
COc1cc(CO)cc2[nH]c(=O)c3c(c12)NCCC3 [Example 105, 8-(Hydroxymethyl)-10-methoxy-1,2,3,4-tetrahydrobenzo[h][1,6]naphthyridine-5(6H)-one hydrochloride]	–	190	–	–	–
COc1cc(CNCCN2CCOCC2)cc2[nH]c(=O)c3c(c12)NCCC3 [Example 107, 10-Methoxy-8-[(2-morpholinoethylamino)methyl)-1,2,3,4-tetrahydrobenzo[h][1,6]naphthyridine-5(6H)-one trihydrochloride]	–	–	70	–	–
NCc1ccc2c3c(c(=O)[nH]c2c1)CCCN3 [Example 112, 8-(Aminomethyl)-1,2,3,4-tetrahydrobenzo[h][1,6]naphthyridine-5 (6H)-one dihydrochloride]	–	–	170	–	–
COc1cc(CN(C)C2CCOCC2)cc2[nH]c(=O)c3c(c12)NCCC3 [Example 115, 10-Methoxy-8-{[methyl(tetrahydro-2H-pyran-4-yl)amino]methyl}-1,2,3,4-tetrahydrobenzo[h][1,6]naphthyridine-5(6H)-one dihydrochloride]	–	–	410	–	–
COCCOc1cc(CN(C)C)cc2[nH]c(=O)c3c(c12)NCCC3 [Example 116, 8-[(Dimethylamino)methyl]-10-(2-methoxyetoxy)-1,2,3,4-tetrahydrobenzo[h][1,6]naphthyridine-5(6H)-one dihydrochloride]	–	180	–	–	–
